Earlier results in patent publication US20070281957A1, “Crystalline Forms of Levorphanol” (Mallinckrodt Inc., priority 2006, published 2007).

Tests used:
[1] = levorphanol free base, known physical property
[2] = levorphanol free base, known physical property; remark: listed apart in the source

## CN1CC[C@]23CCCC[C@H]2[C@H]1Cc1ccc(O)cc13 [Levorphanol, 3-Hydroxy-N-methylmorphinan]
[1]
  Water solubility (at 25° C.): 1840 µg/mL
[2]
  Vapor pressure (at 25° C.): 1.04 × 10^−6 mmHg
